One data set addresses T1, human VR1 (Homo sapiens, UniProt Q8NER1).
T1 construct: expressed in transfected cells
Description: Capsaicin-induced Ca2+ influx in the human VR1-transfected CHO cell line (Assay 1). In kind it is cell-based. Particulars: stimulation with 10 nM capsaicin; human VR1-CHOluc9aeq cells; read-out: activity class (IC50). From the text: [Measurement of Capsaicin-induced Ca^2+ Influx in the Human VR1-transfected CHO Cell Line](Assay 1)
(1) Establishment of the Human VR1-CHOluc9aeq Cell Line
Human vanilloid receptor (hVR1) cDNA was cloned from libraries of axotomized dorsal root ganglia (WO 00/29577). The cloned hVR1 cDNA was constructed with pcDNA3 vector and transfected into a CHOluc9aeq cell line. The cell line contains aequorin and CRE-luciferase reporter genes as read-out signals. The transfectants were cloned by limiting dilution in selection medium (DMEM/F12 medium (Gibco BRL) supplemented with 10% FCS, 1.4 mM Sodium pyruvate, 20 mM HEPES, 0.15% Sodium bicarbonate, 100 U/ml penicillin, 100 μg/ml streptomycin, 2 mM glutamine, non-essential amino acids and 2 mg/ml G418). Ca^2+ influx was examined in the capsaicin-stimulated clones. A high responder clone was selected and used for further experiments in the project. The human VR1-CHOluc9aeq cells were maintained in the selection medium and passaged every 3-4 days at 1-2.5×10^5 cells/flask ([…]).
(2) Measurement of Ca^2+ Influx Using FDSS-3000
Human VR1-CHOluc9aeq cells were suspended in a culture medium which is the same as the selection medium except for G418 and seeded at a density of 1,000 cells per well into 384-well plates (black walled clear-base/Nalge Nunc International). Following the culture for 48 hrs the medium was changed to 2 μM Fluo-3 AM (Molecular Probes) and 0.02% Puronic F-127 in assay buffer (Hank's balanced salt solution (HBSS), 17 mM HEPES (pH7.4), 1 mM Probenecid, 0.1% BSA) and the cells were incubated for 60 min at 25° C. After washing twice with assay buffer the cells were incubated with a test compound or vehicle for 20 min at 25° C. Mobilization of cytoplasmic Ca^2+ was measured by FDSS-3000 (λex=488 nm, λem=540 nm/Hamamatsu Photonics) for 60 sec after the stimulation with 10 nM capsaicin. Integral R was calculated and compared with controls.

T1 sequence (Q8NER1 whole entry): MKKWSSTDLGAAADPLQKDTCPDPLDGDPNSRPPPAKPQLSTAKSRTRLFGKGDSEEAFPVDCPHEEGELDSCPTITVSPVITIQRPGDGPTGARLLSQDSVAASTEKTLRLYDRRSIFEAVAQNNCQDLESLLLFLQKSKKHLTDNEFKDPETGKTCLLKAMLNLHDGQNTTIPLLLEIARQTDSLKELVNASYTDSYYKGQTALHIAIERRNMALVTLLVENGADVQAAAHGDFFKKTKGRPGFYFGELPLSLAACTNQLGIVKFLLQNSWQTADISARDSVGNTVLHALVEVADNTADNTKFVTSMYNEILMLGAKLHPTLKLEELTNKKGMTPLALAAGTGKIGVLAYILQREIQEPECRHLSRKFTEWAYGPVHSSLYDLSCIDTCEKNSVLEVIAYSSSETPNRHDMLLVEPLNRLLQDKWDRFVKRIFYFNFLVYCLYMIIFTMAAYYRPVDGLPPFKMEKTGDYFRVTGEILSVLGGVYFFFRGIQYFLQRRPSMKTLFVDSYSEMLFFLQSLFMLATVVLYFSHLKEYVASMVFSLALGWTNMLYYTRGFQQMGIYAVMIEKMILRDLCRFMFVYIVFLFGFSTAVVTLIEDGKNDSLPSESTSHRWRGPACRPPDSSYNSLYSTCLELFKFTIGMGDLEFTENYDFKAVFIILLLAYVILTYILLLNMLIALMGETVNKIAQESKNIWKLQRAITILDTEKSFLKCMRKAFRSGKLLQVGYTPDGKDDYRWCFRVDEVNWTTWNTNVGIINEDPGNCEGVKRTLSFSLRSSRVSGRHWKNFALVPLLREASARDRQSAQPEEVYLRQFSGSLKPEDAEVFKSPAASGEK

Regarding `O=C(Cc1cccc(Br)c1)Nc1cccc2c1CC(O)CC2` (stereo not drawn) [1-4], on human VR1, the IC50 (commonly the concentration that inhibits the measured activity by half) lay within 500 to 1000 nM.
`O=C(NCc1ccncc1)Nc1cccc2c1CC(O)CC2` (stereo not drawn) [Example 1-6]: the melting point (usually the temperature of the solid-liquid transition) came out at 243 °C.
`O=C(Nc1ccc(Oc2ccncc2)cc1)Nc1cccc2c1CC(O)CC2` (stereo not drawn) [Example 1-4]: the melting point is 200 to 202 °C.
`O=C(Nc1cccc(-c2ccncc2)c1)Nc1cccc2c1CC(O)CC2` (stereo not drawn) [Example 1-11] returned a melting point of 208 °C. Also, at human VR1, the IC50 was less than 100 nM.
As for `O=C(Nc1cccc2c1CC(O)CC2)c1cc2cc(Cl)ccc2[nH]1` (stereo not drawn) [Example 1-1], on human VR1, the IC50 is 100 to 500 nM.
The same measure, in the same setting: next, `O=C(NCc1ccc(-c2csnn2)cc1)Nc1cccc2c1CC(O)CC2` (stereo not drawn) [1-8]: less than 100 nM.
Consider `O=C(NCc1ccc(-c2csnn2)cc1)Nc1cccc2c1CC(O)CC2` (stereo not drawn) [Example 1-8], for which the melting point was 225 °C.
`Cl.O=C(NCc1ccc(C(F)(F)F)nc1)Nc1cccc2c1CC(O)CC2` (stereo not drawn) [Example 1-13] returned a melting point of 204 to 205 °C. Further, the IC50 at human VR1 is less than 100 nM.
With `CC(=O)OC1Cc2cccc(NC(=O)Nc3ccc(Cl)c(C(F)(F)F)c3)c2C1` (stereo not drawn) [Example 1-1], the IC50 at human VR1 lay in the range of 500 to 1000 nM.
As to `CC(C)(C)c1cc(NC(=O)Nc2cccc3c2CC(O)CC3)no1` (stereo not drawn) [1-2], the IC50 at human VR1 fell in the range of 100 to 500 nM.
For the molecule `O=C(Nc1ccc(Cl)c(C(F)(F)F)c1)Nc1cccc2c1CCC(O)C2` (stereo not drawn) [Example 2-3, N-[4-Chloro-3-(trifluoromethyl)phenyl]-N′-(6-hydroxy-5,6,7,8-tetrahydronaphthalen-1-yl)urea], the melting point came out at 216 °C. Besides, on human VR1, the IC50 is less than 100 nM.
Consider `COC1Cc2cccc(NC(=O)Nc3ccc(Cl)c(C(F)(F)F)c3)c2CC1O` (stereo not drawn) [2-8], for which the 50% inhibitory concentration (IC50) at human VR1 lay within 100 to 500 nM.
With `O=C(NCc1ccncc1)Nc1cccc2c1CC(O)CC2` (stereo not drawn) [1-6], on human VR1, the IC50 was 500 to 1000 nM.
On the same count and under the same terms, with `COc1ccccc1C(=O)Nc1cccc2c1CC(O)CC2` (stereo not drawn) [1-2] the figure was 500 to 1000 nM.
`O=C1CCc2c(cccc2NC(=O)NCc2ccc(C(F)(F)F)cc2)C1` [Example 2-5] gave a melting point of 221 °C.
With `COC1Cc2c(cccc2NC(=O)Nc2ccc(Cl)c(C(F)(F)F)c2)CC1O` (stereo not drawn) [Example 2-9], the melting point fell in the range of 112 to 127 °C. On human VR1, the IC50 was less than 100 nM.
On the same counts, the results for `O=C(NCc1ccc(C(F)(F)F)nc1)Nc1cccc2c1CC(O)CC2` (stereo not drawn) [Example 1-12] are 211 to 212 °C and less than 100 nM.
For `O=C(Nc1cccc2c1CC(O)CC2)c1ccc(C(F)(F)F)cc1` (stereo not drawn) [Example 1-3], the melting point was 217 to 218 °C.
`O=C1CCc2c(cccc2NC(=O)NCc2ccc(C(F)(F)F)cc2)C1` [2-5]: on human VR1, the IC50 is less than 100 nM.
On the same count and under the same terms, next, `O=C(Nc1cccc2c1CC(O)CC2)c1ccc(C(F)(F)F)cc1` (stereo not drawn) [1-3]: 100 to 500 nM.
With `O=C(Nc1ccc(Cl)c(C(F)(F)F)c1)Nc1cccc2c1CC(O)C(O)C2` (stereo not drawn) [2-7], the half-maximal inhibitory concentration (IC50) at human VR1 is less than 100 nM.
On to `O=C(Nc1ccc(Cl)c(C(F)(F)F)c1)Nc1cccc2c1CCC2O` (stereo not drawn) [1-3], for which, on human VR1, the IC50 was less than 100 nM.
`CCOC1=CCc2c(cccc2NC(=O)NCc2ccc(C(F)(F)F)cc2)C1` [Example 2-4] displayed a melting point of 235 °C.
On the same count and under the same terms, next, `O=C(Nc1cccc2c1CC(O)CC2)NC1CCCc2ccccc21` (stereo not drawn) [Example 1-7]: 216 °C.
Regarding `O=C(NCc1ccccn1)Nc1cccc2c1CC(O)CC2` (stereo not drawn) [Example 1-9], the melting point was 230 °C. Besides, the IC50 at human VR1 was 500 to 1000 nM.
Turning to `CC1CCc2cccc(NC(=O)Nc3ccc(Cl)c(C(F)(F)F)c3)c2C1` (stereo not drawn) [Example 3-1], the IC50 on human VR1 was less than 100 nM.
Take `CCOC1=CCc2c(cccc2NC(=O)Nc2ccc(Cl)c(C(F)(F)F)c2)C1` [Example 2-1, N-[4Chloro-3-(trifluoromethyl)phenyl]-N′-(6-ethoxy-5,8-dihydronaphthalen-1-yl)urea]: the melting point was found to be 216 °C.
For `O=C(Nc1ccc2c(c1)OCO2)Nc1cccc2c1CC(O)CC2` (stereo not drawn) [Example 1-1], at human VR1, the IC50 lay in the range of 500 to 1000 nM.
As to `O=C(NCc1cccnc1)Nc1cccc2c1CC(O)CC2` (stereo not drawn) [Example 1-5], the melting point was 203 °C.
Take `O=C(NCc1cccnc1)Nc1cccc2c1CC(O)CC2` (stereo not drawn) [1-5]: the IC50 on human VR1 was in the range of 500 to 1000 nM.
`O=C(Nc1ccc2c(c1)OCO2)Nc1cccc2c1CC(O)CC2` (stereo not drawn) gave a melting point of 209 to 211 °C.
`O=C(Nc1cccc2c1CC(O)CC2)NC1CCc2ccccc21` (stereo not drawn) [Example 1-3]: the melting point was 193 to 195 °C.
Still for that read-out and setting: with `CC(=O)OC1Cc2cccc(NC(=O)Nc3ccc(Cl)c(C(F)(F)F)c3)c2C1` (stereo not drawn) [Example 1-1, 4-[({[4-Chloro-3-(trifluoromethyl)phenyl]amino}carbonyl)amino]-2,3-dihydro-1H-inden-2-yl acetate] the figure was 207 to 209 °C.
Turning to `CCOC1=CCc2c(cccc2NC(=O)NCc2ccc(C(F)(F)F)cc2)C1` [2-4], the IC50 on human VR1 was in the range of 500 to 1000 nM.
On to `O=C(Nc1cccc2c1CC(O)CC2)NC1CCc2ccccc21` (stereo not drawn) [1-3], for which, at human VR1, the IC50 was 100 to 500 nM.
With `COc1ccccc1C(=O)Nc1cccc2c1CC(O)CC2` (stereo not drawn) [Example 1-2], the melting point lay in the range of 184 to 186 °C.
On to `O=C(NCc1ccc2c(c1)OCO2)Nc1cccc2c1CC(O)CC2` (stereo not drawn) [Example 1-10], for which the melting point is 190 °C. Also, at human VR1, the IC50 is less than 100 nM.
In the case of `O=C(Nc1ccc(Cl)c(C(F)(F)F)c1)Nc1cccc2c1CCC2O` (stereo not drawn) [Example 1-3], the melting point was in the range of 221 to 223 °C.
In the case of `O=C(NCc1ccc(C(F)(F)F)cc1)Nc1cccc2c1CCC(O)C2` (stereo not drawn) [2-6], on human VR1, the IC50 is less than 100 nM.
The same measure, in the same setting: with `O=C(Nc1ccc(Oc2ccncc2)cc1)Nc1cccc2c1CC(O)CC2` (stereo not drawn) [1-4] the figure was 100 to 500 nM; with `O=C1CCc2c(cccc2NC(=O)Nc2ccc(Cl)c(C(F)(F)F)c2)C1` [Example 2-2], less than 100 nM; with `CC(=O)OC1Cc2cccc(NC(=O)NCc3ccc(C(F)(F)F)cc3)c2C1` (stereo not drawn) [1-2], less than 100 nM.
The molecule `CC(=O)OC1Cc2cccc(NC(=O)NCc3ccc(C(F)(F)F)cc3)c2C1` (stereo not drawn) [Example 1-2] yielded a melting point of 166 to 168 °C.
Still for that read-out and setting: next, `O=C(NCc1ccc(C(F)(F)F)cc1)Nc1cccc2c1CCC(O)C2` (stereo not drawn) [Example 2-6]: 205 °C.
With `O=C(Nc1cccc2c1CC(O)CC2)NC1CCCc2ccccc21` (stereo not drawn) [1-7], the IC50 on human VR1 was less than 100 nM.
On to `O=C(Nc1ccc(Cl)c(C(F)(F)F)c1)Nc1cccc2c1CC(CO)CC2` (stereo not drawn) [Example 4-1, N-[4-Chloro-3-(trifluoromethyl)phenyl]-N′-[7-(hydroxymethyl)-5,6,7,8-tetrahydronaphthalen-1-yl]urea], for which the IC50 at human VR1 was less than 100 nM.
As to `O=C1CCc2c(cccc2NC(=O)Nc2ccc(Cl)c(C(F)(F)F)c2)C1` [Example 2-2, N-[4-Chloro-3-(trifluoromethyl)phenyl]-N′-(6-oxo-5,6,7,8-tetrahydronaphthalen-1-yl)urea], the melting point came out at 219 °C.

These data come from US20080045546A1, “Tetradydro-Naphthalene And Urea Derivatives” (priority 2003, published 2008).
